Data from ChEMBL document CHEMBL3817755, “Design, synthesis and biological evaluation of indazolepyrimidine based derivatives as anticancer agents with anti-angiogenic and antiproliferative activities” (Medchemcomm, 2016).

Legend:
Assay type in all cases: functional
[1] = Growth inhibition of human RPMI8226 cells at 10 uM after 48 hrs by SRB assay; settings: RPMI-8226, 48 h, read-out: GI
[2] = Growth inhibition of human SF539 cells at 10 uM after 48 hrs by SRB assay; settings: SF-539, 48 h, read-out: GI
[3] = Growth inhibition of human UO31 cells at 10 uM after 48 hrs by SRB assay; settings: UO-31, 48 h, read-out: GI
[4] = Growth inhibition of human NCI-ADR-RES cells at 10 uM after 48 hrs by SRB assay; settings: read-out: GI
[5] = Growth inhibition of human HOP92 cells at 10 uM after 48 hrs by SRB assay; settings: HOP-92, 48 h, read-out: GI
[6] = Growth inhibition of human UACC257 cells at 10 uM after 48 hrs by SRB assay; settings: UACC-257, 48 h, read-out: GI
SK-MEL-2 = assay: Growth inhibition of human SK-MEL-2 cells at 10 uM after 48 hrs by SRB assay; settings: SK-MEL-2, 48 h, read-out: GI
[7] = Growth inhibition of human TK10 cells at 10 uM after 48 hrs by SRB assay; settings: TK-10, 48 h, read-out: GI
[8] = Growth inhibition of human SW620 cells at 10 uM after 48 hrs by SRB assay; settings: SW-620, 48 h, read-out: GI
SK-MEL-28 = assay: Growth inhibition of human SK-MEL-28 cells at 10 uM after 48 hrs by SRB assay; settings: SK-MEL-28, 48 h, read-out: GI
[9] = Growth inhibition of human HCT15 cells at 10 uM after 48 hrs by SRB assay; settings: HCT-15, 48 h, read-out: GI
[10] = Growth inhibition of human SNB19 cells at 10 uM after 48 hrs by SRB assay; settings: SNB-19, 48 h, read-out: GI
[11] = Growth inhibition of human HOP62 cells at 10 uM after 48 hrs by SRB assay; settings: HOP-62, 48 h, read-out: GI
[12] = Growth inhibition of human UACC62 cells at 10 uM after 48 hrs by SRB assay; settings: UACC-62, 48 h, read-out: GI
NCI-H322M = assay: Growth inhibition of human NCI-H322M cells at 10 uM after 48 hrs by SRB assay; settings: read-out: GI
MDA-MB-468 = assay: Growth inhibition of human MDA-MB-468 cells at 10 uM after 48 hrs by SRB assay; settings: MDA-MB-468, 48 h, read-out: GI
EKVX = assay: Growth inhibition of human EKVX cells at 10 uM after 48 hrs by SRB assay; settings: read-out: GI
[13] = Growth inhibition of human NCI-ADR-RES cells after 48 hrs by SRB assay
[14] = Growth inhibition of human OVCAR3 cells after 48 hrs by SRB assay; settings: OVCAR-3, 48 h
[15] = Growth inhibition of human OVCAR4 cells after 48 hrs by SRB assay; settings: OVCAR-4, 48 h
[16] = Growth inhibition of human HOP92 cells after 48 hrs by SRB assay; settings: HOP-92, 48 h
[17] = Growth inhibition of human HCT116 cells after 48 hrs by SRB assay; settings: HCT-116, 48 h
NCI-H460 = assay: Growth inhibition of human NCI-H460 cells after 48 hrs by SRB assay; settings: NCI-H460, 48 h
KM12 = assay: Growth inhibition of human KM12 cells after 48 hrs by SRB assay; settings: KM12, 48 h
[18] = Growth inhibition of human HOP62 cells after 48 hrs by SRB assay; settings: HOP-62, 48 h
[19] = Growth inhibition of human Hs 578T cells after 48 hrs by SRB assay
A549 = assay: Growth inhibition of human A549/ATCC cells after 48 hrs by SRB assay; settings: A549, 48 h
[20] = Growth inhibition of human Caki1 cells after 48 hrs by SRB assay; settings: CAKI-1, 48 h
[21] = Growth inhibition of human SF268 cells after 48 hrs by SRB assay; settings: SF-268, 48 h
[22] = Growth inhibition of human SW620 cells after 48 hrs by SRB assay; settings: SW-620, 48 h
K562 = assay: Growth inhibition of human K562 cells after 48 hrs by SRB assay; settings: K562, 48 h
CCRF-CEM = assay: Growth inhibition of human CCRF-CEM cells after 48 hrs by SRB assay
[23] = Growth inhibition of human SNB75 cells after 48 hrs by SRB assay; settings: SNB-75, 48 h
[24] = Growth inhibition of human HL-60(TB) cells after 48 hrs by SRB assay; settings: HL-60, 48 h
[25] = Growth inhibition of human SKOV3 cells after 48 hrs by SRB assay; settings: SK-OV-3, 48 h
[26] = Growth inhibition of human TK10 cells after 48 hrs by SRB assay; settings: TK-10, 48 h
NCI-H23 = assay: Growth inhibition of human NCI-H23 cells after 48 hrs by SRB assay; settings: NCI-H23, 48 h
[27] = Growth inhibition of human HCC2998 cells after 48 hrs by SRB assay; settings: HCC 2998, 48 h
[28] = read-out: LC50 (the source's name)

Structure (SMILES): NS(=O)(=O)c1ccc(Nc2nccc(Nc3ccc4[nH]ncc4c3)n2)cc1
- inhibition of growth at 10 µM [1]: 16%
- inhibition of growth at 10 µM [2]: -3%
- inhibition of growth at 10 µM [3]: 18%
- inhibition of growth at 10 µM [4]: -6%
- inhibition of growth at 10 µM [5]: 47%
- inhibition of growth at 10 µM [6]: 14%
- inhibition of growth at 10 µM (SK-MEL-2): 4%
- inhibition of growth at 10 µM [7]: -16%
- inhibition of growth at 10 µM [8]: -11%
- inhibition of growth at 10 µM (SK-MEL-28): -18%
- inhibition of growth at 10 µM [9]: -6%
- inhibition of growth at 10 µM [10]: 4%
- inhibition of growth at 10 µM [11]: 17%
- inhibition of growth at 10 µM [12]: 11%
- inhibition of growth at 10 µM (NCI-H322M): -5%
- inhibition of growth at 10 µM (MDA-MB-468): 36%
- inhibition of growth at 10 µM (EKVX): -1%

Structure (SMILES): COc1ccc(Nc2nccc(Nc3ccc4[nH]ncc4c3)n2)cc1
- GI50 [13]: 2.18 µM
- LC50 [13]: 29.4 µM
- TGI [13]: 5.75 µM
- GI50 [14]: 3.15 µM
- TGI [14]: 10.6 µM
- CC50 [14, 28]: 44 µM
- GI50 [15]: 2.99 µM
- TGI [15]: 11.8 µM
- CC50 [15, 28]: 55.6 µM
- GI50 [16]: 3.13 µM
- TGI [16]: 12.9 µM
- CC50 [16, 28]: 44.5 µM
- GI50 [17]: 2.06 µM
- TGI [17]: 4.91 µM
- CC50 [17, 28]: 73.1 µM
- GI50 (NCI-H460): 2.7 µM
- LC50 (50% lethal concentration) (NCI-H460): > 100 µM
- TGI (NCI-H460): 38.2 µM
- inhibition of growth at 10 µM [1]: 97%
- GI50 (KM12): 3.45 µM
- TGI (KM12): 24.2 µM
- CC50 (KM12; [28]): > 100 µM
- GI50 [18]: 2.27 µM
- LC50 [18]: 19.4 µM
- TGI [18]: 5.76 µM
- inhibition of growth at 10 µM [2]: 31%
- inhibition of growth at 10 µM [3]: 84%
- inhibition of growth at 10 µM [4]: 82%
- GI50 [19]: 5.02 µM
- TGI [19]: > 100 µM
- CC50 [19, 28]: > 100 µM
- GI50 (A549): 3.46 µM
- TGI (A549): 14.3 µM
- CC50 (A549; [28]): 78.8 µM
- inhibition of growth at 10 µM [5]: 101%
- GI50 [20]: 2.22 µM
- TGI [20]: 14.9 µM
- CC50 [20, 28]: 38.6 µM
- GI50 [21]: 4.2 µM
- TGI [21]: 28.6 µM
- CC50 [21, 28]: > 100 µM
- GI50 [22]: 3.31 µM
- TGI [22]: > 100 µM
- CC50 [22, 28]: > 100 µM
- GI50 (K562): 2.1 µM
- LC50 (K562): > 100 µM
- TGI (K562): 4.67 µM
- GI50 (CCRF-CEM): 2.61 µM
- LC50 (concentration for 50% net cell kill) (CCRF-CEM): > 100 µM
- TGI (CCRF-CEM): 4.67 µM
- inhibition of growth at 10 µM [6]: 54%
- inhibition of growth at 10 µM (SK-MEL-2): 70%
- inhibition of growth at 10 µM [7]: 81%
- inhibition of growth at 10 µM [8]: 75%
- GI50 [23]: 4.58 µM
- LC50 [23]: 51.7 µM
- TGI [23]: 20.3 µM
- inhibition of growth at 10 µM (SK-MEL-28): 34%
- GI50 [24]: 2.05 µM
- LC50 [24]: > 100 µM
- TGI [24]: 4.67 µM
- GI50 [25]: 7.04 µM
- LC50 [25]: 58.8 µM
- TGI [25]: 21.7 µM
- inhibition of growth at 10 µM [9]: 94%
- inhibition of growth at 10 µM [10]: 40%
- GI50 [26]: 2.45 µM
- TGI [26]: 9.55 µM
- CC50 [26, 28]: 31 µM
- inhibition of growth at 10 µM [11]: 51%
- inhibition of growth at 10 µM [12]: 61%
- inhibition of growth at 10 µM (NCI-H322M): 37%
- inhibition of growth at 10 µM (MDA-MB-468): 56%
- GI50 (NCI-H23): 2.35 µM
- TGI (NCI-H23): 6.27 µM
- CC50 (NCI-H23; [28]): 87.3 µM
- inhibition of growth at 10 µM (EKVX): 49%
- GI50 [27]: 2.88 µM
- TGI [27]: 8.05 µM
- CC50 [27, 28]: 27.6 µM

Structure (SMILES): Clc1ccc(Nc2nccc(Nc3ccc4[nH]ncc4c3)n2)cc1
- inhibition of growth at 10 µM [1]: 82%
- inhibition of growth at 10 µM [2]: 24%
- inhibition of growth at 10 µM [3]: 83%
- inhibition of growth at 10 µM [4]: 61%
- inhibition of growth at 10 µM [5]: 101%
- inhibition of growth at 10 µM [6]: 12%
- inhibition of growth at 10 µM [7]: 38%
- inhibition of growth at 10 µM [8]: 67%
- inhibition of growth at 10 µM (SK-MEL-28): 20%
- inhibition of growth at 10 µM [9]: 60%
- inhibition of growth at 10 µM [10]: 22%
- inhibition of growth at 10 µM [11]: 34%
- inhibition of growth at 10 µM [12]: 66%
- inhibition of growth at 10 µM (NCI-H322M): 25%
- inhibition of growth at 10 µM (MDA-MB-468): 66%
- inhibition of growth at 10 µM (EKVX): 33%
